Legend:
[1] = target: T1, NLRP3 (Homo sapiens, UniProt Q96P20); assay: THP-1 cells pyroptosis assay; assay type: cell-based; design: Seed THP-1 cells (25,000 cells/well) containing 1.0 μg/ml LPS; host or cells: THP-1 cells, LPS-primed, nigericin-stimulated; settings: 1.0 μg/ml LPS, nigericin 5 μM, resazurin readout
Experimental: The cells were routinely passaged and grown to confluency (˜10^6 cells/ml). On the day of the experiment, THP-1 cells were harvested and resuspended into RPMI medium (without FBS). […] To this diluted cell solution was added LPS (Sigma #L4524) to give a 1 μg/ml Final Assay Concentration (FAC). 40 μl of the final preparation was aliquoted into each well of a 96-well plate. The plate thus prepared was used for compound screening.
The following method step-by-step assay was followed for compound screening. • 1. […] Incubate for 3 hrs at 37° C., 5% CO2 • 4. Add 5 μl nigericin (Sigma #N7143) (FAC 5 μM) to all wells • 5. Incubate for 1 hr at 37° C., 5% CO2 • 6. At the end of the incubation period, spin plates at 300×g for 3 mins and remove supernatant • 7. Then add 50 μl of resazurin (Sigma #R7017) (FAC 100 μM resazurin in RPMI medium without FBS) and incubate plates for a further 1-2 hrs at 37° C. and 5% CO2 • 8. […] IC50 data is fitted to a non-linear regression equation (log inhibitor vs response-variable slope 4-parameters)

[2] = target: T1, NLRP3; assay: Human whole blood IL-1β release assay; assay type: cell-based; design: Human whole blood in Li-heparin tubes was obtained from healthy donors; from tissue; host or cells: human whole blood from healthy donors, LPS-primed, nigericin-stimulated; settings: 1 μg/ml LPS, nigericin 10 μM, IL-1β by AlphaLisa
Experimental: For systemic delivery, the ability to inhibit NLRP3 when the compounds are present within the bloodstream is of great importance. For this reason, the NLRP3 inhibitory activity of a number of compounds in human whole blood was investigated in accordance with the following protocol.
Human whole blood in Li-heparin tubes was obtained from healthy donors from a volunteer donor panel. • 1. […] Incubate for 3 hrs at 37° C., 5% CO2 • 4. Add 10 μl nigericin (Sigma #N7143) (10 μM FAC) to all wells • 5. Incubate for 1 hr at 37° C., 5% CO2 • 6. At the end of the incubation period, spin plates at 300×g for 5 mins to pellet cells and remove 20 μl of supernatant and add to 96-well v-bottom plates for IL-1β analysis (note: these plates containing the supernatants can be stored at −80° C. to be analysed at a later date) • 7. IL-1β was measured according to the manufacturer protocol (Perkin Elmer-AlphaLisa IL-1 Kit AL220F-5000) • 8. IC50 data is fitted to a non-linear regression equation (log inhibitor vs response-variable slope 4-parameters)

T1 sequence (Q96P20 whole entry): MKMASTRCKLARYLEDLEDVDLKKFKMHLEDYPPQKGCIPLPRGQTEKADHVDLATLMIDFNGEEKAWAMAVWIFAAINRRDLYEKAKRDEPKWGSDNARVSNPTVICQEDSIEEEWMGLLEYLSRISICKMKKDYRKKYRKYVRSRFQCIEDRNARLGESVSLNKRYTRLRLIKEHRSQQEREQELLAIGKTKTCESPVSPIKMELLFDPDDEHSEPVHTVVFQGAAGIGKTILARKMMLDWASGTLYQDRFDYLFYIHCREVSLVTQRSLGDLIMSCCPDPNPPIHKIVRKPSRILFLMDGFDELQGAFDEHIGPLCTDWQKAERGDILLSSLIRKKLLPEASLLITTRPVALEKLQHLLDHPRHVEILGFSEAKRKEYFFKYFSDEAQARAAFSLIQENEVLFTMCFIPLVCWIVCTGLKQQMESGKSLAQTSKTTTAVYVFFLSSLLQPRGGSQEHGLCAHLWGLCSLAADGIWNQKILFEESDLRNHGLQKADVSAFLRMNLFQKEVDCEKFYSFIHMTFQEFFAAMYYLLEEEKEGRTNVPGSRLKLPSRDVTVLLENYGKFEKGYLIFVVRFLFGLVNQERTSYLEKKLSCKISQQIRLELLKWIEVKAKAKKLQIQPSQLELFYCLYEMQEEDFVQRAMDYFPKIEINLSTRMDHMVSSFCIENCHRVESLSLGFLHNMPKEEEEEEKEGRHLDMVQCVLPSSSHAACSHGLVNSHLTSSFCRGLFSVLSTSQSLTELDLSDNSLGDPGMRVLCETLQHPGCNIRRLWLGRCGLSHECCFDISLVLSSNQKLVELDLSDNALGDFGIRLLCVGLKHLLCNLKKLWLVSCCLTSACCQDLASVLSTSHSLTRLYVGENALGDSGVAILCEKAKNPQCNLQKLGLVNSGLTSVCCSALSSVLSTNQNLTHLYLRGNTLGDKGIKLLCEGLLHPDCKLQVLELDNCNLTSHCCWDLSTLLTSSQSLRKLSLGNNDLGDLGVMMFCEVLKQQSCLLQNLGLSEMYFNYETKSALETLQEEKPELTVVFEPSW

SMILES	IC50 [1] [nM]	IC50 [2] [nM]
CCN1CCC[C@@H](Nc2nnc(-c3c(C)cc(C(F)(F)F)cc3O)n(C)c2=O)C1 (single isomer, unassigned) [Example 29, (M or P)-6-[[(3R)-1-ethyl-3-piperidyl]amino]-3-[2-hydroxy-6-methyl-4-(trifluoromethyl)phenyl]-4-methyl-1,2,4-triazin-5-one]	7.8	
CCN1CCC[C@@H](Nc2nnc(-c3c(C)cc(C(F)(F)F)cc3O)n(C)c2=O)C1 (single isomer, unassigned) [Example 30, (P or M)-6-[[(3R)-1-ethyl-3-piperidyl]amino]-3-[2-hydroxy-6-methyl-4-(trifluoromethyl)phenyl]-4-methyl-1,2,4-triazin-5-one]	751	
Cn1c(-c2ccc(C(F)(F)F)cc2O)nnc(N[C@@H]2CCCNC2)c1=O [Example 3, 3-[2-Hydroxy-4-(trifluoromethyl)phenyl]-4-methyl-6-[[(3R)-3-piperidyl]amino]-1,2,4-triazin-5-one;2,2,2-trifluoroacetic Acid]	170	
CN1C2CCC(Nc3nnc(-c4ccc(C(F)(F)F)cc4O)n(C)c3=O)C1CC2 (stereo not drawn) [Example 4, 3-[2-Hydroxy-4-(trifluoromethyl)phenyl]-4-methyl-6-[(8-methyl-8-azabicyclo[3.2.1]octan-2-yl)amino]-1,2,4-triazin-5-one;2,2,2-trifluoroacetic Acid]	96	120
Cn1c(-c2ccc(C(F)(F)F)cc2O)nnc(N[C@@H]2CCCN(CC3CC3)C2)c1=O [Example 5, (R)-6-((1-(Cyclopropylmethyl)piperidin-3-yl)amino)-3-(2-hydroxy-4-(trifluoromethyl)phenyl)-4-methyl-1,2,4-triazin-5(4H)-one;2,2,2-trifluoroacetic Acid]	88	92
CN1CCC[C@@H](Nc2nnc(-c3ccc(C(F)(F)F)cc3O)n(C)c2=O)C1 [Example 6, (R)-3-(2-Hydroxy-4-(trifluoromethyl)phenyl)-4-methyl-6-((1-methylpiperidin-3-yl)amino)-1,2,4-triazin-5(4H)-one;2,2,2-trifluoroacetic Acid]	24	15
Cn1c(-c2ccc(C(F)(F)F)cc2O)nnc(NC2CCCN3CCCC23)c1=O (stereo not drawn) [Example 7, 6-(1,2,3,5,6,7,8,8a-Octahydroindolizin-8-ylamino)-3-[2-hydroxy-4-(trifluoromethyl)phenyl]-4-methyl-1,2,4-triazin-5-one;2,2,2-trifluoroacetic Acid]	51	86
CCCN1CCC[C@@H](Nc2nnc(-c3ccc(C(F)(F)F)cc3O)n(C)c2=O)C1 [Example 8, 3-[2-Hydroxy-4-(trifluoromethyl)phenyl]-4-methyl-6-[[(3R)-1-propyl-3-piperidyl]amino]-1,2,4-triazin-5-one;2,2,2-trifluoroacetic Acid]	53	32
CN1CC(Nc2nnc(-c3ccc(C(F)(F)F)cc3O)n(C)c2=O)CC(C)(C)C1 (stereo not drawn) [Example 9, 3-[2-Hydroxy-4-(trifluoromethyl)phenyl]-4-methyl-6-[(1,5,5-trimethyl-3-piperidyl)amino]-1,2,4-triazin-5-one;2,2,2-trifluoroacetic Acid]	868	
Cn1c(-c2ccc(C(F)(F)F)cc2O)nnc(N[C@H]2C[C@@](C)(O)C2)c1=O [Example 11, 6-(((1S,3S)-3-Hydroxy-3-methylcyclobutyl)amino)-3-(2-hydroxy-4-(trifluoromethyl)phenyl)-4-methyl-1,2,4-triazin-5(4H)-one]	391	190
Cn1c(-c2ccc(C(F)(F)F)cc2O)nnc(NC2CC3CNC2C3)c1=O (stereo not drawn) [Example 13, 6-(2-Azabicyclo[2.2.1]heptan-6-ylamino)-3-[2-hydroxy-4-(trifluoromethyl)phenyl]-4-methyl-1,2,4-triazin-5-one;2,2,2-trifluoroacetic Acid]	> 1000	
CCN1C[C@@H](C)C[C@@H](Nc2nnc(-c3ccc(C(F)(F)F)cc3O)n(C)c2=O)C1 [Example 14, 6-[[(3R,5S)-1-Ethyl-5-methyl-3-piperidyl]amino]-3-[2-hydroxy-4-(trifluoromethyl)phenyl]-4-methyl-1,2,4-triazin-5-one;2,2,2-trifluoroacetic Acid]	765	
CCN1C[C@H](C)C[C@@H](Nc2nnc(-c3ccc(C(F)(F)F)cc3O)n(C)c2=O)C1 [Example 15, 6-[[(3R,5R)-1-Ethyl-5-methyl-3-piperidyl]amino]-3-[2-hydroxy-4-(trifluoromethyl)phenyl]-4-methyl-1,2,4-triazin-5-one;2,2,2-trifluoroacetic Acid]	> 1000	
CN1CC(Nc2nnc(-c3ccc(C(F)(F)F)cc3O)n(C)c2=O)C[C@H](F)C1 (stereo partly drawn) [Example 16, 6-[[(5S)-5-fluoro-1-methyl-3-piperidyl]amino]-3-[2-hydroxy-4-(trifluoromethyl)phenyl]-4-methyl-1,2,4-triazin-5-one;2,2,2-trifluoroacetic Acid]	860	
Cn1c(-c2ccc(C(F)(F)F)cc2O)nnc(N[C@@H]2CCC(C)(C)NC2)c1=O [Example 17, 6-[[(3R)-6,6-Dimethyl-3-piperidyl]amino]-3-[2-hydroxy-4-(trifluoromethyl)phenyl]-4-methyl-1,2,4-triazin-5-one;2,2,2-trifluoroacetic Acid]	683	
Cn1c(-c2ccc(C(F)(F)F)cc2O)nnc(NCc2cccc(O)c2)c1=O [Example 18, 6-[(3-Hydroxyphenyl)methylamino]-3-[2-hydroxy-4-(trifluoromethyl)phenyl]-4-methyl-1,2,4-triazin-5-one;2,2,2-trifluoroacetic Acid]	1.2	8.1
CCN1CCC[C@@H](Nc2nnc(-c3ccc(C(F)(F)F)cc3O)n(C3CC3)c2=O)C1 [Example 20, 4-Cyclopropyl-6-[[(3R)-1-ethyl-3-piperidyl]amino]-3-[2-hydroxy-4-(trifluoromethyl)phenyl]-1,2,4-triazin-5-one;2,2,2-trifluoroacetic Acid]	726	
CCN1CCC[C@@H](Nc2nnc(-c3ccc(C(F)(F)F)cc3O)n(CC)c2=O)C1 [Example 22, 4-Ethyl-6-[[(3R)-1-ethyl-3-piperidyl]amino]-3-[2-hydroxy-4-(trifluoromethyl)phenyl]-1,2,4-triazin-5-one]	94	48
CCN1CCC[C@@H](Nc2nnc(-c3ccc(OC(F)F)cc3O)n(C)c2=O)C1 [Example 23, 3-[4-(Difluoromethoxy)-2-hydroxy-phenyl]-6-[[(3R)-1-ethyl-3-piperidyl]amino]-4-methyl-1,2,4-triazin-5-one; Formic Acid]	8.1	6.5
CN1CCC[C@@H](Nc2nnc(-c3ccc(C(F)(F)F)cc3O)n(C)c2=O)C1 [Example 26, 3-[2-hydroxy-4-(trifluoromethyl)phenyl]-4-methyl-6-[[(3R)-1-methyl-3-piperidyl]amino]-1,2,4-triazin-5-one]	10.3	
CCN1CCC[C@@H](Nc2nnc(-c3ccc(S(F)(F)(F)(F)F)cc3O)n(C)c2=O)C1 [Example 31, 6-[[(3R)-1-Ethyl-3-piperidyl]amino]-3-[2-hydroxy-4-(pentafluoro-λ6-sulfanyl)phenyl]-4-methyl-1,2,4-triazin-5-one]	115	
CCN1CCC[C@@H](Nc2nnc(-c3ccc(C#N)cc3O)n(C)c2=O)C1 [Example 32, 4-[6-[[(3R)-1-Ethyl-3-piperidyl]amino]-4-methyl-5-oxo-1,2,4-triazin-3-yl]-3-hydroxy-benzonitrile; formic acid]	809	
CCN1CCC[C@@H](Nc2nnc(-c3ccc(C(F)(F)F)cc3O)[nH]c2=O)C1 [Example 35, 6-[[(3R)-1-Ethyl-3-piperidyl]amino]-3-[2-hydroxy-4-(trifluoromethyl)phenyl]-4H-1,2,4-triazin-5-one;2,2,2-trifluoroacetic Acid]	459	
CN1C[C@@H](F)C[C@@H](Nc2nnc(-c3ccc(C(F)(F)F)cc3O)[nH]c2=O)C1 [Example 36, 6-[[(3R,5S)-1-Methyl-5-fluoro-3-piperidyl]amino]-3-[2-hydroxy-4-(trifluoromethyl)phenyl]-4H-1,2,4-triazin-5-one;2,2,2-trifluoroacetic Acid]	> 1000	
